Laboratory results as given in the supplement of paper PMC10307832.

Columns and labels:
Assay in all cases: relative viability (nuclei count vs DMSO), 5 days (fraction); higher = more cells survive
Decitabine + Navitoclax = compound: Nc1ncn([C@H]2C[C@H](O)[C@@H](CO)O2)c(=O)n1 [Decitabine] + CC1(C)CCC(c2ccc(Cl)cc2)=C(CN2CCN(c3ccc(C(=O)NS(=O)(=O)c4ccc(N[C@H](CCN5CCOCC5)CSc5ccccc5)c(S(=O)(=O)C(F)(F)F)c4)cc3)CC2)C1 [Navitoclax] (partner 0.5 µM)
Outline: (§1)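 Medians of duplicate plates are given as relative viability. That measure is the nuclei count in treated wells divided by the count in vehicle wells. Counts were taken on 4× images of lung cancer cell lines in 1536-well plates, 5 days after pin-tool dosing the day after seeding with one drug alone or a fixed anchor-drug dose plus five library-drug doses (not always all listed) in √10 steps.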

Decitabine + Alpelisib = compound: Nc1ncn([C@H]2C[C@H](O)[C@@H](CO)O2)c(=O)n1 [Decitabine] + Cc1nc(NC(=O)N2CCC[C@H]2C(N)=O)sc1-c1ccnc(C(C)(C)C(F)(F)F)c1 [Alpelisib] (partner 2 µM)
Outline: as §1

Halofuginone + Foretinib = compound: O=C(C[C@H]1NCCC[C@@H]1O)Cn1cnc2cc(Br)c(Cl)cc2c1=O (racemic) [Halofuginone] + COc1cc2c(Oc3ccc(NC(=O)C4(C(=O)Nc5ccc(F)cc5)CC4)cc3F)ccnc2cc1OCCCN1CCOCC1 [Foretinib] (partner 0.25 µM)
Outline: as §1

[1] = compound: O=C(C[C@H]1NCCC[C@@H]1O)Cn1cnc2cc(Br)c(Cl)cc2c1=O (racemic) [Halofuginone] + O=C(CCCCCCC(=O)Nc1ccccc1)NO [Vorinostat] (partner 1 µM)
Outline: as §1

Row | Cell Line | relative viability (Decitabine + Navitoclax; first compound 0.04 µM) | relative viability (Decitabine + Navitoclax; first compound 0.1265 µM) | relative viability (Decitabine + Navitoclax; first compound 0.4 µM) | relative viability (Decitabine + Navitoclax; first compound 1.265 µM) | relative viability (Decitabine + Navitoclax; first compound 4 µM) | relative viability (Decitabine + Alpelisib; first compound 0.04 µM) | relative viability (Decitabine + Alpelisib; first compound 0.1265 µM) | relative viability (Decitabine + Alpelisib; first compound 0.4 µM) | relative viability (Decitabine + Alpelisib; first compound 1.265 µM) | relative viability (Decitabine + Alpelisib; first compound 4 µM) | relative viability (Halofuginone + Foretinib; first compound 0.001 µM) | relative viability (Halofuginone + Foretinib; first compound 0.003162 µM) | relative viability (Halofuginone + Foretinib; first compound 0.01 µM) | relative viability (Halofuginone + Foretinib; first compound 0.03162 µM) | relative viability (Halofuginone + Foretinib; first compound 0.1 µM) | relative viability ([1]; first compound 0.001 µM) | relative viability ([1]; first compound 0.003162 µM) | relative viability ([1]; first compound 0.01 µM) | relative viability ([1]; first compound 0.03162 µM) | relative viability ([1]; first compound 0.1 µM)
1 | NCI-H2085 | 0.882 | 0.736 | 0.67 | 0.497 | 0.467 | 0.767 | 0.617 | 0.554 | 0.379 | 0.433 | 0.935 | 0.937 | 0.974 | 1.22 | 0.59 | 0.817 | 0.805 | 0.759 | 0.815 | 0.748
2 | NCI-H3122 | 0.999 | 0.984 | 0.97 | 0.886 | 0.76 | 0.666 | 0.774 | 0.732 | 0.709 | 0.528 | 0.931 | 0.946 | 0.963 | 0.96 | 0.987 | 0.924 | 1.13 | 0.938 | 1.01 | 1.06
3 | NCI-H1651 | 0.893 | 1.03 | 0.958 | 0.684 | 0.876 | 0.834 | 0.902 | 0.861 | 0.718 | 0.633 | 0.91 | 0.814 | 0.696 | 0.519 | 0.416 | 0.528 | 0.528 | 0.572 | 0.548 | 0.59
4 | NCI-H441 | 0.258 | 0.293 | 0.274 | 0.259 | 0.223 | 0.412 | 0.334 | 0.276 | 0.214 | 0.259 | 1.08 | 1.03 | 0.823 | 0.643 | 0.362 | 0.799 | 0.936 | 0.863 | 0.8 | 0.49
5 | NCI-H2126 | 0.777 | 0.787 | 0.548 | 0.491 | 0.574 | 0.673 | 0.659 | 0.521 | 0.521 | 0.424 | 1.28 | 1.19 | 1.16 | 1.17 | 0.947 | 0.903 | 0.762 | 0.784 | 0.74 | 0.562
6 | RERF-LC-KJ | 0.779 | 0.844 | 0.279 | 0.597 | 0.618 | 0.87 | 0.914 | 0.702 | 0.643 | 0.569 | 0.902 | 1.01 | 0.967 | 0.853 | 0.815 | 0.8 | 0.675 | 0.605 | 0.718 | 0.604
7 | NCI-H1666 | 0.85 | 0.776 | 0.687 | 0.465 | 0.487 | 0.797 | 0.753 | 0.606 | 0.489 | 0.473 | 0.979 | 0.934 | 1.01 | 0.952 | 0.936 | 1.14 | 0.966 | 0.999 | 0.984 | 0.955
8 | PC-14 | 0.51 | 0.556 | 0.231 | 0.162 | 0.166 | 0.623 | 0.723 | 0.411 | 0.196 | 0.18 | 0.937 | 0.977 | 0.859 | 0.903 | 0.8 | 0.803 | 0.626 | 0.646 | 0.292 | 0.0442
9 | NCI-H1915 | 0.338 | 0.253 | 0.223 | 0.184 | 0.188 | 0.475 | 0.301 | 0.272 | 0.227 | 0.247 | 1.12 | 1.16 | 1.07 | 1.03 | 0.97 | 0.531 | 0.554 | 0.561 | 0.472 | 0.511
10 | SK-MES-1 | 0.976 | 0.84 | 0.501 | 0.33 | 0.303 | 0.733 | 0.738 | 0.482 | 0.32 | 0.261 | 1.06 | 1.06 | 0.911 | 0.828 | 0.611 | 1.16 | 1.09 | 0.997 | 0.949 | 0.183
11 | NCI-H1944 | 0.689 | 0.669 | 0.564 | 0.423 | 0.365 | 0.874 | 0.797 | 0.725 | 0.473 | 0.435 | 0.865 | 0.89 | 0.853 | 0.899 | 0.561 | 0.565 | 0.536 | 0.519 | 0.477 | 0.513
12 | HCC-78 | 0.71 | 0.561 | 0.458 | 0.329 | 0.284 | 0.324 | 0.293 | 0.285 | 0.204 | 0.247 | 0.593 | 0.635 | 0.488 | 0.684 | 0.552 | 0.675 | 0.459 | 0.391 | 0.426 | 0.367
13 | PC-3 [JPC-3] |  | 0.601 | 0.526 | 0.463 | 0.51 |  | 0.773 | 0.581 | 0.493 | 0.479 | 1.02 | 1.04 | 0.981 | 0.996 | 1.08 | 0.84 | 0.769 | 0.693 | 0.929 | 0.683
14 | EKVX | 0.75 | 0.809 | 0.561 | 0.365 | 0.347 | 0.635 | 0.565 | 0.522 | 0.393 | 0.318 | 0.806 | 0.794 | 0.947 | 0.794 | 0.293 | 0.787 | 0.729 | 0.729 | 0.693 | 0.572
15 | NCI-H460 | 0.974 | 1.03 | 0.612 | 0.292 | 0.198 | 0.425 | 0.575 | 0.348 | 0.268 | 0.191 | 1.01 | 1.08 | 0.899 | 0.942 | 0.113 | 0.675 | 0.756 | 0.744 | 0.495 | 0.176
16 | NCI-H2170 | 0.402 | 0.338 | 0.382 | 0.238 | 0.204 | 0.558 | 0.674 | 0.616 | 0.43 | 0.315 | 0.987 | 1 | 0.968 | 0.478 | 1.03 | 0.853 | 0.831 | 0.799 | 0.825 | 0.802
